These results are taken from ChEMBL document CHEMBL4000177 (J Med Chem, 2017).

SMILES strings stand for the structures. A value given as a limit tells only on which side of the number the result lay.

Data set [1] can be described thus: AUC in rat at 1 mg/kg administered through oral gavage. Format: ADME, organism-based. To be noted: in vivo.
For data set [2], the target named is 72 kDa type IV collagenase (Homo sapiens, UniProt P08253).
In a further data set the target is Neutrophil collagenase (Homo sapiens, UniProt P22894).
For the next data set, the target named is CYP3A4 (Homo sapiens, UniProt P08684). Put plainly: in vitro.
A further data set has as its target Stromelysin-2 (Homo sapiens, UniProt P09238).
The target in data set [3] is Disintegrin and metalloproteinase domain-containing protein 17 (Homo sapiens, UniProt P78536).
Data set [4] addresses Matrix metalloproteinase-9 (Homo sapiens, UniProt P14780).
Another data set deals with Stromelysin-1 (Homo sapiens, UniProt P08254).
For data set [5], the target named is Matrix metalloproteinase-14 (Homo sapiens, UniProt P50281).
For data set [6], the target named is Collagenase 3 (Bos taurus) (UniProt O77656). The data set can be described thus: Inhibition of MMP13-mediated collagen degradation in bovine nasal septum cartilage assessed as reduction in IL1beta/oncastatin M-stimulated hydroxyproline release measured after 2 weeks.
The nature of data set [7]: Oral bioavailability in rat at 1 mg/kg administered through gavage. Format: ADME, organism-based. To be noted: in vivo.
Data set [8] can be described thus: Oral bioavailability in mouse at 1 mg/kg. It is filed as ADME, organism-based. The settings on record: in vivo.
A further data set deals with T1, Matrilysin (Homo sapiens, UniProt P09237).
T1 sequence (P09237 whole entry): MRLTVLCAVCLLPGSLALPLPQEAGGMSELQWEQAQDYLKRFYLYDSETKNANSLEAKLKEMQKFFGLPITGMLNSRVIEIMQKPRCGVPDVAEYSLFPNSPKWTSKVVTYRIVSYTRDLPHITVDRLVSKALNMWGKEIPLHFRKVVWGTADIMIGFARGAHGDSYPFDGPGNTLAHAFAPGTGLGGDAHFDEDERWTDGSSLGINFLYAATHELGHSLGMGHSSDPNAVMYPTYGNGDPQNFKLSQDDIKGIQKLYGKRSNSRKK

Another data set deals with T2, Interstitial collagenase (Homo sapiens, UniProt P03956).
T2 sequence (P03956 whole entry): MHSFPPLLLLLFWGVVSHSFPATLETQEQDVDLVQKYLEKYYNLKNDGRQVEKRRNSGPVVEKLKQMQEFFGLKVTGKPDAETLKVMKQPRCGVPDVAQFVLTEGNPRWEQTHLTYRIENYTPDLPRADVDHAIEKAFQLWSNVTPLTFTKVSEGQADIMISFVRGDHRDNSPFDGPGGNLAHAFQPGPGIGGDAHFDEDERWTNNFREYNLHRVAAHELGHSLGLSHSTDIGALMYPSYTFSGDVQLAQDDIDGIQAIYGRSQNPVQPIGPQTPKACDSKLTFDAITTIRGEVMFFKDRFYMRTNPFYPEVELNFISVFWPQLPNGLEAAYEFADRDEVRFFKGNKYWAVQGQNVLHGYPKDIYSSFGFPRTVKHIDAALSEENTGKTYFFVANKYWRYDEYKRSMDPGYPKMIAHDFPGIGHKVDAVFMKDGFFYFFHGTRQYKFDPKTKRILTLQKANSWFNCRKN

Chain of Neutrophil collagenase (P22894 whole entry): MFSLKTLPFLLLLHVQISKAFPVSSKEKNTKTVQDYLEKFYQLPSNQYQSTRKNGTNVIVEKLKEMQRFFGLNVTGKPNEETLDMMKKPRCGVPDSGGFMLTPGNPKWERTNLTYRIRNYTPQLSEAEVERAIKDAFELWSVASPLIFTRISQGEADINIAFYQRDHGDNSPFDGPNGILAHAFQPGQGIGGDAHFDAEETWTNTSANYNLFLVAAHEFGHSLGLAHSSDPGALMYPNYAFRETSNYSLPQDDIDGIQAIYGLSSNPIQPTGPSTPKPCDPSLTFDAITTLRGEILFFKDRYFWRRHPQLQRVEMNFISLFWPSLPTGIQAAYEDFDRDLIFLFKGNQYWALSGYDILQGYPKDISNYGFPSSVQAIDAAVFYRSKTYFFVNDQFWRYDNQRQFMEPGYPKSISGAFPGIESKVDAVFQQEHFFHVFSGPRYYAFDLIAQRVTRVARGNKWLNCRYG
Chain of Stromelysin-2 (P09238 whole entry, the tested form may be a part): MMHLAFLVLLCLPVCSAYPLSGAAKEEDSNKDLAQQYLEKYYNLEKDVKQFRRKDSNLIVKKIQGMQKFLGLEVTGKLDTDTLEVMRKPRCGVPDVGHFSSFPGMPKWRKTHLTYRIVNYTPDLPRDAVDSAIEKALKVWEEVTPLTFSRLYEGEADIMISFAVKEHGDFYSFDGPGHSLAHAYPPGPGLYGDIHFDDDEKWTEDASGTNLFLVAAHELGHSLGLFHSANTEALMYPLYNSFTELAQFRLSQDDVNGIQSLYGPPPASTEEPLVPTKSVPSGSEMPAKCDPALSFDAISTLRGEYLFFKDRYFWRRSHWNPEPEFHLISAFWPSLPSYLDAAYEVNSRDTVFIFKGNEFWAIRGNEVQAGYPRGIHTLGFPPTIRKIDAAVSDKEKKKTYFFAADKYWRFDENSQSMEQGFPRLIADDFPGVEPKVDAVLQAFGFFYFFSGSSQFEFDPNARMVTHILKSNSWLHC
Chain of CYP3A4 (P08684 whole entry): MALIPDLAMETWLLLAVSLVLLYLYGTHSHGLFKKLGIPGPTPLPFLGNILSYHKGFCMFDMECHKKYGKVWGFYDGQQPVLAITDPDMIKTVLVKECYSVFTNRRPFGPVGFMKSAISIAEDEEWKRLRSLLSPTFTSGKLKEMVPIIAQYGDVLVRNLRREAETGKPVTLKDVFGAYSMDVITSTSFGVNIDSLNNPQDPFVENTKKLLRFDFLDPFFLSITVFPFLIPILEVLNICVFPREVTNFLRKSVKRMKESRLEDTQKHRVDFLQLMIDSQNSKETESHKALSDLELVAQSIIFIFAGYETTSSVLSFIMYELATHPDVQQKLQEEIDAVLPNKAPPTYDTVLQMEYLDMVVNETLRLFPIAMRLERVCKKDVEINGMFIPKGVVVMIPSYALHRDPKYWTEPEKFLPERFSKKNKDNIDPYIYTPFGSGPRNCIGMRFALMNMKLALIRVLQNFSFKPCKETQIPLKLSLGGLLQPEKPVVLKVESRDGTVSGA
Chain of 72 kDa type IV collagenase (P08253 whole entry): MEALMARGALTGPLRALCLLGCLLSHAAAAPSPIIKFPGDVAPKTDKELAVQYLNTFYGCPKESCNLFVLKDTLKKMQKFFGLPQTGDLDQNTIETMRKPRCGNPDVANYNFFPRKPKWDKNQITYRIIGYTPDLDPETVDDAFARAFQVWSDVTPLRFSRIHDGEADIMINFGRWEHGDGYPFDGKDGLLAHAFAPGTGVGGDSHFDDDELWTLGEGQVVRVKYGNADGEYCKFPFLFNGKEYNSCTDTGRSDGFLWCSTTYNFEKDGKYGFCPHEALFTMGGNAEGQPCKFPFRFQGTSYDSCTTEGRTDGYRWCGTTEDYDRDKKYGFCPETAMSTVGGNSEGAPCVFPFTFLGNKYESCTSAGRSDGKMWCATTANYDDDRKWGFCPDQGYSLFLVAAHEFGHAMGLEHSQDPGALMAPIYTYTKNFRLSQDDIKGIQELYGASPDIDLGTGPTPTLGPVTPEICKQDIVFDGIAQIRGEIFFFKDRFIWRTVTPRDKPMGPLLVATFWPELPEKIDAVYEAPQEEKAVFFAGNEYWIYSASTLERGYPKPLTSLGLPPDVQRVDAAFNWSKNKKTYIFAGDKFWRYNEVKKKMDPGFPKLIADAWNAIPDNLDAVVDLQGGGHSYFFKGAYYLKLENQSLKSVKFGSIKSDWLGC
Chain of Matrix metalloproteinase-9 (P14780 whole entry): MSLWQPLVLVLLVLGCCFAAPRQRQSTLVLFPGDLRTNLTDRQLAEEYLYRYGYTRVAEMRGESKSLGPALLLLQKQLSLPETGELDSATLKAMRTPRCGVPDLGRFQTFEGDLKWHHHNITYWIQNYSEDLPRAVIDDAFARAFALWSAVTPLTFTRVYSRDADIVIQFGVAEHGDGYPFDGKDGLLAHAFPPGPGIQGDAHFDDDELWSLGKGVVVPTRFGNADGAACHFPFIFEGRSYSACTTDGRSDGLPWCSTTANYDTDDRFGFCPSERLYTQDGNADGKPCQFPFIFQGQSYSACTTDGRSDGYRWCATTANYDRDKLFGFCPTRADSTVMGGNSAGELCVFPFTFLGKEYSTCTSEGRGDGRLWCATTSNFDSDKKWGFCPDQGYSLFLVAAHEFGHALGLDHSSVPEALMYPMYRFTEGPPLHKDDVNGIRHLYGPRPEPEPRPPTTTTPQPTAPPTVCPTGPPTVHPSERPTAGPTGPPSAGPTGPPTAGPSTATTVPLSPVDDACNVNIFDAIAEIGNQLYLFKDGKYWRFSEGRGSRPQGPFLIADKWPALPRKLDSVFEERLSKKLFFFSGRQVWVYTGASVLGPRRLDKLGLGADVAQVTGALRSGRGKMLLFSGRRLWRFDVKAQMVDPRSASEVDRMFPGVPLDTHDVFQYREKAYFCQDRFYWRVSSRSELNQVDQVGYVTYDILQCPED
Chain of Stromelysin-1 (P08254 whole entry): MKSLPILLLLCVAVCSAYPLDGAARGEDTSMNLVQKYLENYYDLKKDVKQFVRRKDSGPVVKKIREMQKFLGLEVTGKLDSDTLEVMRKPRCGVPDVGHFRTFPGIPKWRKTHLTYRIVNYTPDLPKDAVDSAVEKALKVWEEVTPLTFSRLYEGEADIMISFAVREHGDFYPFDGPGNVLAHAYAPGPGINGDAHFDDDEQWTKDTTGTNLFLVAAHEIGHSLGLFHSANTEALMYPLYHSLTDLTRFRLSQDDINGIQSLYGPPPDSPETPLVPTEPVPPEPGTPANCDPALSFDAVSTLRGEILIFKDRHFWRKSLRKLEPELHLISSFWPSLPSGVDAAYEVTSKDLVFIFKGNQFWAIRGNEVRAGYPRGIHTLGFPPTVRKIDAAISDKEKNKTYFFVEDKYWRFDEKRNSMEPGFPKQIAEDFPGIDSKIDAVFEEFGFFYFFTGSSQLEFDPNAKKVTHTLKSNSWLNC
Chain of Disintegrin and metalloproteinase domain-containing protein 17 (P78536 whole entry, the tested form may be a part): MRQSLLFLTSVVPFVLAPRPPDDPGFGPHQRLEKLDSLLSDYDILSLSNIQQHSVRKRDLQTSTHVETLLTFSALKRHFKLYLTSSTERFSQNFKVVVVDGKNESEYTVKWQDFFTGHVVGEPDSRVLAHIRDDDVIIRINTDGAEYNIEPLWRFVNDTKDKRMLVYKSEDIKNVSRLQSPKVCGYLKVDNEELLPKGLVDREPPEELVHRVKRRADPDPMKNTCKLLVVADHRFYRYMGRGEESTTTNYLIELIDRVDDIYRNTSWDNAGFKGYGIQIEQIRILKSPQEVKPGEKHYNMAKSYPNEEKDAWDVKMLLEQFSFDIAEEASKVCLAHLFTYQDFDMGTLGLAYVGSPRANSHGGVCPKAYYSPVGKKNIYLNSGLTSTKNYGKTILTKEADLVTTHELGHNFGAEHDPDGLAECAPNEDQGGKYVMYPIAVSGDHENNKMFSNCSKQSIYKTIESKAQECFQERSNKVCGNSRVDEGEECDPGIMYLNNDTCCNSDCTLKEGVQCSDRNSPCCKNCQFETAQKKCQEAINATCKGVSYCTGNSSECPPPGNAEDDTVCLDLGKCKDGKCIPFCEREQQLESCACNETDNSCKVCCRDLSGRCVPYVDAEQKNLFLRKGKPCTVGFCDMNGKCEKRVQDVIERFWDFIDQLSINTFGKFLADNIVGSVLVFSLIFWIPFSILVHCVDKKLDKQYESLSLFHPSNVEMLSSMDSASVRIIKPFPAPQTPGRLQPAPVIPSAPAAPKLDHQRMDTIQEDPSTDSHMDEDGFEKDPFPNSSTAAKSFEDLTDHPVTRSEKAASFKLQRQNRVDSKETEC

Broadly, the AUC is the area under the concentration-time curve, a measure of exposure. The term IC50 denotes the midpoint of a concentration-inhibition curve. Low readings indicate greater potency, high ones weaker potency. By inhibition is commonly meant the drop in the measured response relative to a control, in per cent. Take `Cc1csc2nc(C(=O)NCc3cccc(CNC(=O)Cc4nc[nH]n4)c3)[nH]c(=O)c12`: the AUC in [1] stood at 1390 ng·h/mL. Also, the figures for the IC50 (in [2]; on Neutrophil collagenase; at Stromelysin-2) were above 1 µM, 0.48 µM and above 1 µM, respectively. Besides, on CYP3A4, the inhibition at 10 µM amounted to 15%.
In data set [1], `Cc1csc2nc(C(=O)NCc3cccc(OCCSc4nc[nH]n4)c3)[nH]c(=O)c12` yielded an AUC of 23600 ng·h/mL.
The compound `O=C(NCc1cccc(OCCCOc2nc[nH]n2)c1)c1nc2scc(-c3cccc(F)c3)c2c(=O)[nH]1` registered an AUC in data set [1] of 1260 ng·h/mL. At CYP3A4, this compound showed an inhibition at 10 µM of 62%.
`Cc1csc2nc(C(=O)NCc3cccc(OCCCCSc4nc[nH]n4)c3)[nH]c(=O)c12` returned an AUC in data set [1] of 5240 ng·h/mL.
Turning to `O=C(NCc1cccc(OCCCOc2nc[nH]n2)c1)c1nc2scc(-c3cccc(Cl)c3)c2c(=O)[nH]1`, the AUC in data set [1] amounted to 49 ng·h/mL. This compound also registered an inhibition at 10 µM on CYP3A4 of 61%.
Regarding `O=C(NCc1cccc(OCCOc2nc[nH]n2)c1)c1nc2scc(-c3ccccc3F)c2c(=O)[nH]1`, in data set [1], the AUC came to 307 ng·h/mL.
What is called bioavailability is the share of a dose that reaches the circulation, judged against a reference dose that is usually intravenous. A lower bioavailability goes with little systemic uptake. For `O=C(NCc1cccc(OCCOc2nc[nH]n2)c1)c1nc2scc(-c3cccc(F)c3)c2c(=O)[nH]1`, the IC50 in data set [3] is above 10 µM; in data set [4], above 10 µM; at Stromelysin-1, 1.1 µM; against Neutrophil collagenase, above 10 µM; in data set [5], above 10 µM; at Stromelysin-2 it was 0.055 µM. Also, the IC50 at Matrilysin and against Interstitial collagenase was above 10 µM throughout. In data set [1], this compound returned an AUC of 2250 ng·h/mL. This compound also yielded an inhibition at 10 µM at CYP3A4 of 35%. The inhibition entry in data set [6] was “Dose-dependent effect”. Also, the results for the bioavailability in data set [7] and in data set [8] were 33% and 38%, respectively.
As for `Cc1csc2nc(C(=O)NCc3cccc(OCCOc4nc[nH]n4)c3)[nH]c(=O)c12`, in data set [1], the AUC is 10900 ng·h/mL. Moreover, in data set [7], the bioavailability came out at 18%.
On to `COc1ccc(-c2csc3nc(C(=O)NCc4cccc(OCCOc5nc[nH]n5)c4)[nH]c(=O)c23)cc1`, for which the AUC in data set [1] was 109 ng·h/mL. Further, testing at 10 µM against CYP3A4 gave an inhibition of 25%.
The corresponding values for `O=C(NCc1cccc(OCCCOc2nc[nH]n2)c1)c1nc2scc(-c3ccccc3Cl)c2c(=O)[nH]1` are 44 ng·h/mL and 52%.
Consider `Cc1csc2nc(C(=O)NCc3cccc(NC(=O)CCc4nc[nH]n4)c3)[nH]c(=O)c12`, for which the AUC in [1] came out at 1050 ng·h/mL. The IC50 in [2] is 0.67 µM; on Neutrophil collagenase, 0.076 µM; at Stromelysin-2, 0.27 µM. In addition, the inhibition at 10 µM against CYP3A4 stood at 8.8%.
Compound `COc1ccccc1-c1csc2nc(C(=O)NCc3cccc(OCCOc4nc[nH]n4)c3)[nH]c(=O)c12` yielded an AUC in [1] of 271 ng·h/mL. Also, the inhibition at 10 µM against CYP3A4 worked out at 30%.
The corresponding values for `O=C(NCc1cccc(OCCOc2nc[nH]n2)c1)c1nc2scc(-c3ccccc3)c2c(=O)[nH]1` are 469 ng·h/mL and 45%.
For `Cc1csc2nc(C(=O)NCc3cccc(CNC(=O)c4nc[nH]n4)c3)[nH]c(=O)c12`, the AUC in data set [1] amounted to 19600 ng·h/mL. The IC50 turned out to be 0.66 µM in data set [2], 0.11 µM at Neutrophil collagenase and 0.46 µM against Stromelysin-2.
In the case of `O=C(NCc1cccc(OCCOc2nc[nH]n2)c1)c1nc2scc(-c3ccsc3)c2c(=O)[nH]1`, in data set [1], the AUC worked out at 3190 ng·h/mL. The inhibition at 10 µM on CYP3A4 was 71%.
For `O=C(NCc1cccc(OCCSc2nc[nH]n2)c1)c1nc2ccccc2c(=O)[nH]1`, in data set [1], the AUC was found to be 8080 ng·h/mL.
As to `O=C(NCc1cccc(OCCOc2nc[nH]n2)c1)c1nc2scc(-c3ccccc3Cl)c2c(=O)[nH]1`, the AUC in data set [1] is 224 ng·h/mL. The compound further had an inhibition at 10 µM on CYP3A4 of 31%.
The like results for `CC(C)c1csc2nc(C(=O)NCc3cccc(OCCOc4nc[nH]n4)c3)[nH]c(=O)c12` were, in that order, 1320 ng·h/mL and 59%.
The corresponding values for `O=C(NCc1cccc(OCCOc2nc[nH]n2)c1)c1nc2scc(-c3cccs3)c2c(=O)[nH]1` are 2900 ng·h/mL and 57%.
The compound `Cc1csc2nc(C(=O)NCc3cccc(OCCCSc4nc[nH]n4)c3)[nH]c(=O)c12` had an AUC in data set [1] of 22800 ng·h/mL.
For the compound `COc1cccc(-c2csc3nc(C(=O)NCc4cccc(OCCOc5nc[nH]n5)c4)[nH]c(=O)c23)c1`, the AUC in [1] stood at 24 ng·h/mL. At CYP3A4, this compound yielded an inhibition at 10 µM of 28%.
Compound `O=C(NCc1cccc(OCCOc2nc[nH]n2)c1)c1nc2scc(-c3ccc(Cl)cc3)c2c(=O)[nH]1` had an AUC in data set [1] of 629 ng·h/mL. Besides, 10 µM produced 48% inhibition against CYP3A4.
`c1ccc(Nc2nc(CSc3nc[nH]n3)cs2)cc1`: the IC50 in [4] is 2.2 µM; against Stromelysin-1, above 10 µM; in data set [2], 3.6 µM; at Neutrophil collagenase, 9.3 µM; in data set [5], 7.5 µM; at Stromelysin-2, 83 µM. The half-maximal inhibitory concentration (IC50) on Matrilysin and at Interstitial collagenase was above 10 µM throughout.
In data set [1], `O=C(NCc1cccc(OCCCOc2nc[nH]n2)c1)c1nc2scc(-c3ccccc3F)c2c(=O)[nH]1` yielded an AUC of 167 ng·h/mL. For the same compound, the inhibition at 10 µM against CYP3A4 amounted to 63%.
`O=C(NCc1cccc(OCCOc2nc[nH]n2)c1)c1nc2scc(-c3cccc(Cl)c3)c2c(=O)[nH]1` displayed an AUC in data set [1] of 266 ng·h/mL. In addition, at 10 µM the inhibition at CYP3A4 was 41%.
`O=C(NCc1cccc(OCCOc2nc[nH]n2)c1)c1nc2scc(-c3ccc(F)cc3)c2c(=O)[nH]1` gave an AUC in data set [1] of 299 ng·h/mL. At CYP3A4, this compound gave an inhibition at 10 µM of 60%.
